Residue numbers refer to the chain shown, from its start. Square brackets hold non-standard residues; d marks the D form. Peptide text beside a SMILES is read from it. pT = C[C@@H](OP(=O)(O)O)[C@H](N)C(=O)O
Assays:
[1] = tested on: Bub1^289–359–Bub3^R217A–R239A; assay: ITC binding to Bub1^289–359–Bub3^R217A–R239A double mutant; set-up: species or system Saccharomyces cerevisiae; conditions: 25°C, 20 mM Tris pH7.5, 150 mM NaCl, 1 mM DTE, complex 30 µM in cell, peptide 400 µM
Excerpt: (§1) Because the presence of a phosphate on Thr172^Spc105/Knl1 is essential for high-affinity binding of ScBub1^289–359–Bub3 to MELT^P peptides (Figure 1), we concentrated our mutational analysis on two residues that are directly implicated in the recognition of the peptide’s phospho-threonine, Arg217^Bub3 and Arg239^Bub3. Positively charged residues are invariant at these positions of the Bub3 alignment (Figure 2C). We generated single or double alanine mutants of Arg217^Bub3 and Arg239^Bub3 in the context of ScBub1^289–359–Bub3 and tested their binding affinity for the MELT2^P peptide by ITC.
(§2) cDNA sequences coding for S. cerevisiae Bub1^289–359 and for full length Bub3 were subcloned in the first and second cassettes of pGEX-6P-2rbs vector ([Ciferri et al., 2005]). In this construct, the cDNA encoding Bub1^289–359 was sub-cloned in frame with the gene encoding GST and a cleavage site for PreScission protease, and was translated from the first ribosome-binding site (rbs). Untagged Bub3 was subcloned downstream of the second rbs in the same vector. Expression was carried out in BL21 DE3 plysS cells in LB medium by auto-induction with 0.3% lactose at 18°C for approximately 16 hr. […]
(§3) Binding isotherm was measured at 25°C by isothermal titration calorimetry on a MicroCal ITC200 device (GE Healthcare, Piscataway, NJ). […]

Bub3 = molecular target: T1, Bub3 (Saccharomyces cerevisiae, UniProt P26449); assay: ITC binding to Bub3 in the absence of Bub1; conditions: Bub3 without Bub1 compared to the Bub1–Bub3 complex
T1 construct: S. cerevisiae Bub1^289–359 and for full length Bub3; made in house
T1 sequence (P26449 1-341): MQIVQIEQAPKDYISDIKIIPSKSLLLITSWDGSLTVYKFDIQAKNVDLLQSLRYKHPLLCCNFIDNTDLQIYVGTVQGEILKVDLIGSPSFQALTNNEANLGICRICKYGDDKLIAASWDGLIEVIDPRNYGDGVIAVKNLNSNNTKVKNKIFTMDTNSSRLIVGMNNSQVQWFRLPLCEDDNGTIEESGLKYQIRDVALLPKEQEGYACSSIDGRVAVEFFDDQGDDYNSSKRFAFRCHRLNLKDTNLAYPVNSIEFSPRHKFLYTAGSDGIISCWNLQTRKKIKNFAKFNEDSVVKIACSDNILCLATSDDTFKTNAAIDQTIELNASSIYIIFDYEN
Procedure: However, as already anticipated in the Introduction, several lines of evidence indicate that Bub1 contributes to this interaction (Discussion). To test this possibility formally, we measured the binding of purified Bub3 (Figure 1D) to the MELT2^P peptide in the absence of Bub1.
Binding isotherm was measured at 25°C by isothermal titration calorimetry on a MicroCal ITC200 device (GE Healthcare, Piscataway, NJ). All samples were extensively dialysed into fresh GF buffer (20 mM Tris pH7.5, 150 mM NaCl, 1 mM DTE). In each titration, the Bub1^289–359–Bub3 in the cell (at a 30 µM concentration) was titrated with thirty-five 2-µl injections (at 90 s intervals) of the indicated synthetic MELT^P peptides (at a concentration of 400 µM). The injections were continued beyond saturation levels to allow for determination of heats of ligand dilution. Data were fitted by least-square procedures to a single-site binding model using ORIGIN 5.0 software package (MicroCal, Northampton, MA).

Bub1^289–359–Bub3^R239A = molecular target: T2, Bub1^289–359–Bub3^R239A (Saccharomyces cerevisiae, UniProt P26449+P41695, R239A); assay: ITC binding to Bub1^289–359–Bub3^R239A; conditions: Bub3 R239A compared with wild type (13- to 25-fold for R217A or R239A)
T2 construct: S. cerevisiae Bub1^289–359 and for full length Bub3; ITC experiments with the MELT2^P peptide and Bub1^289–359–Bub3^R239A; GST (N, cleaved yes); made in house; host or cells: E. coli BL21 DE3 plysS
T2 sequence (P26449 1-341 R239A): T1 sequence (P26449 1-341) with R239A
T2 sequence (P41695 289-359): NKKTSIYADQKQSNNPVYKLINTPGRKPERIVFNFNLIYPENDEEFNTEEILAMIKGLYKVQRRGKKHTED
Excerpt: as §1, §2, §3

With CC[C@H](C)[C@H](NC(=O)[C@H](CO)NC(=O)[C@H](CCCNC(=N)N)NC(=O)[C@@H]1CCCN1C(=O)[C@H](Cc1ccccc1)NC(=O)[C@@H](NC(=O)[C@H](CCC(=O)O)NC(=O)[C@@H](NC(=O)[C@H](CCSC)NC(=O)[C@H](CCC(=O)O)NC(=O)[C@H](CCSC)NC(=O)[C@H](CO)NC(=O)[C@@H](NC(=O)[C@@H]1CCCN1C(=O)[C@H](CC(=O)O)NC(C)=O)[C@@H](C)O)[C@@H](C)OP(=O)(O)O)C(C)C)C(=O)N[C@@H](CCCNC(=N)N)C(=O)N[C@@H](CCC(N)=O)C(=O)N[C@@H](CCCCN)C(=O)N[C@@H](CC(N)=O)C(N)=O [MELT2^P] (Ac-DPTSMEM[pT]EVFPRSIRQKN-NH2; N-terminus and C-terminus assumed) the “binding (in words)” value [1] was “no significant residual binding”, the “fold reduction in binding affinity” value (Bub3) was 10 fold and the “fold reduction in binding affinity” value (Bub1^289–359–Bub3^R239A) was 25 fold.

From publication PMC3779320, “Bub3 reads phosphorylated MELT repeats to promote spindle assembly checkpoint signaling” (eLife, 2013)
